From patent US6355799B1, “Substituted benzene compounds, process for their preparation, and herbicidal and defoliant compositions containing them” (ISK Americas Incorporated, priority 1997, dated 2002)

Columns and labels:
Type in all cases: in vivo
[1] = tested on: redroot pigweed (Amaranthus retroflexus, AMARE); assay: Pre-emerge test, greenhouse herbicide activity screening; conditions: pre-emerge, 14 days after application, scale 0-100
In short: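 Herbicidal damage is scored 0 (none) to 100 (complete plant death) two weeks after a simulated field spray. Rates span 15–1000 g ai/ha, delivered in acetone at 187 l/ha. For post-emergence treatments, plants have 2–3 leaves and the spray carries 0.25% v/v non-ionic surfactant.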

[2] = tested on: barnyardgrass (Echinochloa crus-galli, ECHCG); assay: as above; conditions: pre-emerge, 14 days after application, scale 0-100
In short: (§1)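 Plants grown in 10 cm pots of sandy loam mix received acetone-dissolved compounds through a moving flat-fan nozzle. Doses ranged from 15 to 1000 g ai/ha. Pre-emerge pots were seeded one day earlier, post-emerge pots 8–21 days earlier. Fourteen days on, each pot was graded 0–100 for damage.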

[3] = tested on: green foxtail (Setaria viridis, SETVI); assay: as above; conditions: pre-emerge, 14 days after application, scale 0-100
In short: as §1

[4] = tested on: ivyleaf morningglory (Ipomoea hederacea, IPOHE); assay: as above; conditions: pre-emerge, 14 days after application, scale 0-100
In short: as §1

[5] = tested on: johnsongrass (Sorghum halepense, SORHA); assay: as above; conditions: pre-emerge, 14 days after application, scale 0-100
In short: as §1

[6] = tested on: lambsquarters (Chenopodium album, CHEAL); assay: as above; conditions: pre-emerge, 14 days after application, scale 0-100
In short: as §1

[7] = tested on: large crabgrass (Digitaria sanguinalis, DIGSA); assay: as above; conditions: pre-emerge, 14 days after application, scale 0-100
In short: as §1

[8] = tested on: sicklepod (Cassia obtusifolia, CASOB); assay: as above; conditions: pre-emerge, 14 days after application, scale 0-100
In short: as §1

[9] = tested on: velvetleaf (Abutilon theophrasti, ABUTH); assay: as above; conditions: pre-emerge, 14 days after application, scale 0-100
In short: as §1

[10] = tested on: field corn (Zea mays L., var. Dekalb 535, CORN); assay: Pre-emerge test, crop safety; conditions: pre-emerge, 14 days after application, scale 0-100
In short: (§2)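 Rating: 0–100 visual injury, 14 DAA. Application: acetone, 187 l/ha, 15–1000 g ai/ha, flat-fan track sprayer with nozzle 40–45 cm above soil or canopy. Post-emerge runs used 0.25% v/v surfactant on 2–3 leaf plants.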

[11] = tested on: upland rice (Oryza sp., var. Tebonnet, RICE); assay: Pre-emerge test, crop safety; conditions: pre-emerge, 14 days after application, scale 0-100
In short: as §2

[12] = tested on: barnyardgrass (Echinochloa crus-galli, ECHCG); assay: Post-emerge test, greenhouse herbicide activity screening; conditions: post-emerge, 14 days after application, rating scale 0-100
In short: (§3)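 Compounds in acetone were track-sprayed at 15-1000 g ai/ha (187 l/ha) on sandy loam pots: pre-emerge one day after seeding, post-emerge at 2-3 leaf stage with 0.25% v/v non-ionic surfactant. Phytotoxicity was rated 14 days later on a 0 (no damage) to 100 (complete death) scale.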

[13] = tested on: green foxtail (Setaria viridis, SETVI); assay: as above; conditions: post-emerge, 14 days after application, rating scale 0-100
In short: as §3

[14] = tested on: ivyleaf morningglory (Ipomoea hederacea, IPOHE); assay: as above; conditions: post-emerge, 14 days after application, rating scale 0-100
In short: as §3

[15] = tested on: johnsongrass (Sorghum halepense, SORHA); assay: as above; conditions: post-emerge, 14 days after application, rating scale 0-100
In short: as §3

[16] = tested on: lambsquarters (Chenopodium album, CHEAL); assay: as above; conditions: post-emerge, 14 days after application, rating scale 0-100
In short: as §3

[17] = tested on: large crabgrass (Digitaria sanguinalis, DIGSA); assay: as above; conditions: post-emerge, 14 days after application, rating scale 0-100
In short: as §3

[18] = tested on: redroot pigweed (Amaranthus retroflexus, AMARE); assay: as above; conditions: post-emerge, 14 days after application, rating scale 0-100
In short: as §3

[19] = tested on: sicklepod (Cassia obtusifolia, CASOB); assay: as above; conditions: post-emerge, 14 days after application, rating scale 0-100
In short: as §3

[20] = tested on: velvetleaf (Abutilon theophrasti, ABUTH); assay: as above; conditions: post-emerge, 14 days after application, rating scale 0-100
In short: as §3

[21] = tested on: field corn (Zea mays L., var. Dekalb 535, CORN); assay: Post-emerge test, crop safety; conditions: post-emerge, 14 days after application, rating scale 0-100
In short: (§4)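 Each test used a mechanized track sprayer delivering 187 l/ha of acetone solution at 15–1000 g ai/ha. Post-emerge foliage at 2–3 leaves was treated with added 0.25% v/v non-ionic surfactant and bottom-watered only. Injury was assessed on day 14, where 100 means total kill.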

[22] = tested on: upland rice (Oryza sp., var. Tebonnet, RICE); assay: Post-emerge test, crop safety; conditions: post-emerge, 14 days after application, rating scale 0-100
In short: as §4

**Q.** CCOC(=O)C(C)SCC(=O)Nc1c(OC)c(Cl)cc(F)c1-n1c(=O)cc(C(F)(F)F)n(C)c1=O (centres unmarked) [2-171] was tested. Which “phytotoxicity rating AMARE” value ([1]; 63 g ai/ha) did it give?
**A.** Its value is 50.

**Q.** What about the “phytotoxicity rating AMARE” value ([1]; 250 g ai/ha) of the same compound?
**A.** The value was 100.

**Q.** What about the “phytotoxicity rating ECHCG” value ([2]; 63 g ai/ha) of the same compound?
**A.** Its value is 0.

**Q.** And the “phytotoxicity rating ECHCG” value ([2]; 250 g ai/ha)?
**A.** The value was 10.

**Q.** And the “phytotoxicity rating SETVI” value ([3]; 63 g ai/ha)?
**A.** Its value is 30.

**Q.** What about the “phytotoxicity rating SETVI” value ([3]; 250 g ai/ha) of the same compound?
**A.** Its value is 90.

**Q.** And the “phytotoxicity rating IPOHE” value ([4]; 63 g ai/ha)?
**A.** The value was 10.

**Q.** And the “phytotoxicity rating IPOHE” value ([4]; 250 g ai/ha)?
**A.** Its value is 60.

**Q.** And the “phytotoxicity rating SORHA” value ([5]; 63 g ai/ha)?
**A.** Its value is 10.

**Q.** What about the “phytotoxicity rating SORHA” value ([5]; 250 g ai/ha) of the same compound?
**A.** Its value is 30.

**Q.** What about the “phytotoxicity rating CHEAL” value ([6]; 63 g ai/ha) of the same compound?
**A.** The value was 70.

**Q.** What about the “phytotoxicity rating CHEAL” value ([6]; 250 g ai/ha) of the same compound?
**A.** Its value is 100.

**Q.** And the “phytotoxicity rating DIGSA” value ([7]; 63 g ai/ha)?
**A.** Its value is 20.

**Q.** And the “phytotoxicity rating DIGSA” value ([7]; 250 g ai/ha)?
**A.** The value was 80.

**Q.** What about the “phytotoxicity rating CASOB” value ([8]; 63 g ai/ha) of the same compound?
**A.** Its value is 10.

**Q.** What about the “phytotoxicity rating CASOB” value ([8]; 250 g ai/ha) of the same compound?
**A.** Its value is 30.

**Q.** And the “phytotoxicity rating ABUTH” value ([9]; 63 g ai/ha)?
**A.** Its value is 90.

**Q.** And the “phytotoxicity rating ABUTH” value ([9]; 250 g ai/ha)?
**A.** The value was 100.

**Q.** And the “phytotoxicity rating CORN (crop damage)” value ([10]; 63 g ai/ha)?
**A.** Its value is 0.

**Q.** And the “phytotoxicity rating CORN (crop damage)” value ([10]; 250 g ai/ha)?
**A.** Its value is 0.

**Q.** What about the “phytotoxicity rating RICE (crop damage)” value ([11]; 63 g ai/ha) of the same compound?
**A.** Its value is 0.

**Q.** And the “phytotoxicity rating RICE (crop damage)” value ([11]; 250 g ai/ha)?
**A.** Its value is 10.

**Q.** What about the ECHCG phytotoxicity rating ([12]; 63 g ai/ha) of the same compound?
**A.** Its ECHCG phytotoxicity rating is 0.

**Q.** What about the ECHCG phytotoxicity rating ([12]; 250 g ai/ha) of the same compound?
**A.** Its ECHCG phytotoxicity rating is 0.

**Q.** And the SETVI phytotoxicity rating ([13]; 63 g ai/ha)?
**A.** Its SETVI phytotoxicity rating is 0.

**Q.** What about the SETVI phytotoxicity rating ([13]; 250 g ai/ha) of the same compound?
**A.** Its SETVI phytotoxicity rating is 10.

**Q.** And the IPOHE phytotoxicity rating ([14]; 63 g ai/ha)?
**A.** The IPOHE phytotoxicity rating was 60.

**Q.** And the IPOHE phytotoxicity rating ([14]; 250 g ai/ha)?
**A.** The IPOHE phytotoxicity rating was 100.

**Q.** And the SORHA phytotoxicity rating ([15]; 63 g ai/ha)?
**A.** The SORHA phytotoxicity rating was 0.

**Q.** And the SORHA phytotoxicity rating ([15]; 250 g ai/ha)?
**A.** The SORHA phytotoxicity rating was 10.

**Q.** And the CHEAL phytotoxicity rating ([16]; 63 g ai/ha)?
**A.** The CHEAL phytotoxicity rating was 40.

**Q.** And the CHEAL phytotoxicity rating ([16]; 250 g ai/ha)?
**A.** The CHEAL phytotoxicity rating was 90.

**Q.** What about the DIGSA phytotoxicity rating ([17]; 63 g ai/ha) of the same compound?
**A.** Its DIGSA phytotoxicity rating is 0.

**Q.** And the DIGSA phytotoxicity rating ([17]; 250 g ai/ha)?
**A.** The DIGSA phytotoxicity rating was 10.

**Q.** And the AMARE phytotoxicity rating ([18]; 63 g ai/ha)?
**A.** Its AMARE phytotoxicity rating is 30.

**Q.** What about the AMARE phytotoxicity rating ([18]; 250 g ai/ha) of the same compound?
**A.** The AMARE phytotoxicity rating was 50.

**Q.** And the CASOB phytotoxicity rating ([19]; 63 g ai/ha)?
**A.** The CASOB phytotoxicity rating was 30.

**Q.** And the CASOB phytotoxicity rating ([19]; 250 g ai/ha)?
**A.** Its CASOB phytotoxicity rating is 40.

**Q.** What about the ABUTH phytotoxicity rating ([20]; 63 g ai/ha) of the same compound?
**A.** Its ABUTH phytotoxicity rating is 60.

**Q.** What about the ABUTH phytotoxicity rating ([20]; 250 g ai/ha) of the same compound?
**A.** The ABUTH phytotoxicity rating was 100.

**Q.** What about the “CORN phytotoxicity rating (crop damage)” value ([21]; 63 g ai/ha) of the same compound?
**A.** The value was 0.

**Q.** And the “CORN phytotoxicity rating (crop damage)” value ([21]; 250 g ai/ha)?
**A.** The value was 10.

**Q.** What about the “RICE phytotoxicity rating (crop damage)” value ([22]; 63 g ai/ha) of the same compound?
**A.** The value was 0.

**Q.** What about the “RICE phytotoxicity rating (crop damage)” value ([22]; 250 g ai/ha) of the same compound?
**A.** Its value is 10.
